In assay [1] the test system is human lymphocytes and human CD3 positive lymphocytes. The experiment in a line: Gliotoxin- or PMA-induced apoptosis of human mononuclear cells cultured overnight; FACS readout by DiOC6(3), 7AAD or cell size. It is filed as cell-based. Conditions: for protection of lymphocytes from gliotoxin-induced apoptosis: CD3+ cultures, DioC6(3) staining, pMO2 0.5 or 0.25 mg/ml (0.2 and 0.1 mM), FIG. 11; for protective (anti-apoptotic) effect in vitro: DiOC6(3), 7AAD and cell size, FIGS. 11-13. As for the experimental part:
The changes in the mitochondria membrane potential can be measured with 3,3′-Dihexyloxacarbocyanine iodide (Dioc6(3)). The binding to the mitochondria membrane is relative to its potential, the highest binding occurs in live and intact cells; the lowest in dead cells. The binding is monitored by flow cytometry (FL1 channel).
After overnight culture (see below), cells are washed in PBS and are treated with 40 nM DiOC6(3) for 15 min at 37° C. Cells are then washed in PBS, stained for lymphocytes surface markers such as CD3/CD4/CD8, with the appropriate antibodies, for 30 min at 4° C., washed again in PBS, resuspended in 0.5 ml PBS and analyzed using the FACS (flow cytometry).
7AAD is a nucleic acid dye that binds to […] DNA, selectively to GC regions of DNA. No binding is observed in live cells. The binding to apoptotic cells is proportional to the degree of apoptosis and membrane damage. The 7AAD fluorescence is detected in the far-red range of the spectrum (650 nm), in the FL3 channel.
After overnight culture (see below), cells are washed with PBS and are stained with monoclonal antibodies (CD3/4/8) for 30 min at 4° C., then washed again in PBS. Cells are then incubated with 7AAD (20 μg/ml) for 20 min at 4° C. in the dark and directly analyzed using the FACS (flow cytometry).
As a result of the process of apoptosis, cells undergo a cytoplasm shrinkage, which can be detected as a decrease in cell size as observed by the forward scatter position of the cells analyzed by FACS; the smaller lymphocytes are apoptotic, the larger are intact.
Mononuclear cells, freshly obtained from peripheral blood on a Ficoll-Hypaque gradient are washed in PBS and resuspended in RPMI supplemented with 10% fetal calf serum, glutamine, antibiotics, non-essential amino acids and sodium pyruvate, at a concentration of 4×10^6 cells per ml. Cells (0.5 ml per well) are incubated overnight, in 24 well plates, in the presence of Gliotoxin (0.1 μg/ml) or PMA (1 μg/ml) and with pMO2 or pSCR peptides (0.2, 0.1, 0.05 mM equivalent to 0.5, 0.25 and 0.125 mg/ml); as a control DMSO—the diluent of the peptides—was used at the appropriate dilution or with recombinant human CD14 (10 and 5 μg/ml). For the experiments aimed at neutralizing the human rCD14, monoclonal antibodies against CD14 or against actin (as a control) are added, together with the CD14, at a final concentration of 15 μg/ml.
After the overnight incubation, cells are processed for apoptosis assessment using the methods described above.
The effect of recombinant human CD14 on the induction of apoptosis in human lymphocytes and in human CD3 positive lymphocytes was tested in vitro. Human mononuclear cells obtained from healthy individuals were incubated with apoptosis inducers, gliotoxin or PMA. […] Namely, recombinant human CD14 protects lymphocytes from gliotoxin-induced apoptosis. […] Two parameters were measured: cell size (A), and mitochondrial membrane potential determined by Dioc6 (3) binding (B). In (A) there is a shift to the left (characteristic to apoptotic cells) under gliotoxin treatment compared to “medium”, and a reversal to normal size in the presence of rhCD14. In (B) low binding of Dioc6 (3) in the presence of gliotoxin (characteristic to apoptotic cells) can be observed, and the effect is reversed by rhCD14.
In addition, in order to investigate the spectrum of effective concentrations of rhCD14, mononuclear cells were cultured overnight in the presence of gliotoxin and varying concentrations of rhCD14, ranging from 10 to 0.6 μg/ml. Apoptosis of CD3+ cells was measured with Dioc6(3). As expected, cells cultured without gliotoxin included a very low number of apoptotic cells, about 0.3% of the cultured cells.
As explained above, the epitopes recognized by this monoclonal MO2 antibody were mapped using a random peptide library, and one of the specific peptides (amino acids 139-160 of CD14; pMO2) was synthesized. […]

Assay [2] has as its system CD3 positive and CD3 negative cells. The assay can be described thus: Intracellular binding / penetration of pMO2-biotin into mononuclear cells (streptavidin-APC, FACS). In kind it is cell-based, human. As for the experimental part: The cells were incubated for 3 hours with pMO2-biotin or DMSO (the peptide diluent) as a control. In order to visualize the biotin-labeled pMO2, the cells were washed and stained with anti-CD3 antibodies and fluorescent streptavidin (streptavidin-APC), with or without prior fixation and permeabilization.

Assay [3] deals with intracellular expression of MO2 in lymphocytes. The assay can be described thus: Blocking of monocyte secretion of CD14 in vitro; intracellular MO2 staining in lymphocytes. It is filed as cell-based. Conditions: cell secretion blocked; staining with anti MO2 antibodies. The source says:
Further support for the concept that lymphocytes are capable of MO2 uptake is found in another experiment in which monocyte secretion of CD14 in vitro was blocked with Brefeldin A (a drug blocking the Golgi system thus inhibiting cell secretion).

[4] abbreviates: 0.2 mM peptide, gliotoxin, FIGS. 14, 15.

Here are results for 4 molecules from US20100331239A1, “CD14 AND PEPTIDES THEREOF FOR PROTECTION OF CELLS AGAINST CELL DEATH” (THE MEDICAL RESEARCH, INFRASTRUCTURE AND HEALTH SERVICES, priority 2008, published 2010).

Where only a bound is given, the exact number is not on record here.

For ATGLALSSLRLRNVSWATGRSW [pMO2], the “percent protection from apoptosis” value in assay [1] (0.05 mM peptide, gliotoxin vs gliotoxin and control diluent, FIG. 14) is reported as “about 45%”. Besides, the “efficiency in protecting cells from apoptosis” value in assay [1] (0.1 mM peptide, gliotoxin, FIG. 14) was “very high efficiency”; in assay [1] (setting [4]), “very high efficiency”. The “protection of lymphocytes from gliotoxin-induced apoptosis” value (shortened to “protection of lymphocytes”) in assay [1] is “equally protect”. In assay [1] (gliotoxin), the “protective (anti-apoptotic) effect in vitro” value was “retain the anti-apoptotic effect of the whole recombinant human CD14”. Further, the penetration into lymphocytes result in assay [2] (3 hours incubation with pMO2-biotin, visualized only upon fixation and permeabilization, FIG. 16) was “penetrates lymphocytes”. The “time of incubation for penetration into the majority of the lymphocytes” value in assay [2] (CD3 positive and CD3 negative cells in vitro, FIG. 17) is at most 10 min.

Turning to “ALGTSLARLSNRLWSVGTAWSR (listed as Homo sapiens) [pSCR, scrambled control peptide based on the same amino acids as pMO2, reference compound]”, the “efficiency in protecting cells from apoptosis” value in assay [1] (setting [4]) was “no protection”. The “protection of lymphocytes” value in assay [1] is listed as “not”. Besides, the “protective (anti-apoptotic) effect in vitro” value in assay [1] (gliotoxin) is reported as “did not show any protective effect”.

`C[C@H]1CCC/C=C/[C@@H]2C[C@H](O)C[C@H]2[C@H](O)/C=C/C(=O)O1` [Brefeldin A]: the “change of intracellular expression of MO2 in lymphocytes” value in assay [3] is “substantial decrease”.

B1: rhCD14: recombinant human soluble CD14 polypeptide, not anchored to the cell membrane (SEQ ID NO: 5) (protein, listed as Homo sapiens)
chain: MERASCLLLLLLPLVHVSATTPEPCELDDEDFRCVCNFSEPQPDWSEAFQCVSAVEVEIHAGGLNLEPFLKRVDADADPRQYADTVKALRVRRLTVGAAQVPAQLLVGALRVLAYSRLKELTLEDLKITGTMPPLPLEATGLALSSLRLRNVSWATGRSWLAELQQWLKPGLKVLSIAQAHSPAFSCEQVRAFPALTSLDLSDNPGLGERGLMAALCPHKFPAIQNLALRNTGMETPTGVCAALAAAGVQPHSLDLSHNSLRATVNPSAPRCMWSSALNSLNLSFAGLEQVPKGLPAKLRVLDLSCNRLNRAPQPDELPEVDNLTLDGNPFLVPGTALPHEGSMNSGVVPACARSTLSVGVSGTLVLLQGARGFA
On to B1, for which the “protection of lymphocytes” value in assay [1] is reported as “equally protect”. Also, in assay [1] (apoptosis inducers gliotoxin or PMA, added during the incubation), the “effect on induced apoptosis of lymphocytes and of CD3 positive lymphocytes” value is “blocked significantly”. Moreover, the “concentration at which inhibition of apoptosis is already effective” value in assay [1] (gliotoxin, overnight, rhCD14 titrated 10 to 0.6 μg/ml, CD3+ cells, Dioc6(3), FIG. 6) was determined as 1.25 µg/mL.
